The text below walks through data of patent US20240408143A1, “METHODS FOR CULTURING MESENCHYMAL STEM CELLS, COMPOSITIONS AND IMPLEMENTATIONS THEREOF” (Pandorum Technologies Private Limited, priority 2021, published 2024).

Where a name gives a salt, the structure may show the parent alone.

For test [1], the system named is hBM-MSCs. Put plainly: Secretome analysis of primed hBM-MSCs by ELISA. The class given is cell-based, human. The following applies: vs control/untreated. The protocol:
hBM-MSCs were cultured in xeno free media along with a replacement of 10% and 20% of CSSC-derived conditioned media (CSSC-CM) to reach a confluence of 80-90%. The media was then subsequently shifted to EV collect for 24-72 hours and primed conditioned media was collected (as described in example 1.1, and 1.2), and exosome isolation was performed by iodixanol density gradient method (as described in example 4.4) and enriched exosomes were obtained. Homogenous fraction F9 was considered for further functional analysis. The secretome analysis was performed using ELISA, detecting the levels of HGF, VEGF, sFLT1, IL-6, NGF.
hBM-MSCs were primed with various priming agents (small molecules) and the secretome was collected (see example 3.2-3.6). The secretome analysis was performed using ELISA, and the levels of HGF, VEGF, NGF, IL-6, sFLT1, SDF1 were detected. FIGS. 6A-6F depict bar graphs of the quantification of the secreted protein levels of HGF, VEGF, NGF, IL-6, sFLT1, and SDF-1 from hBM-MSCs primed with curcumin, 4-OI, DMF, or the combination of curcumin conditioned media and DMF.
For orientation: ELISA stands for enzyme-linked immunosorbent assay.

In test [2] the test system is MSCs. Put plainly: MSC viability by MTT assay after ATRA treatment. The class given is cell-based. The following applies: 0.1 μM to 500 μM for 24 and 48 hours; all treated MSCs except 0.1 μmol/L. The protocol: (§1) ATRA is found to increase the viability of MSCs. This was ascertained as the MSCs were treated with various concentrations of ATRA (0.1 μM to 500 μM) for 24 and 48 hours and their viability were examined by MTT assay. […] ATRA elevated the PGE2 levels. […] ATRA increased the expression of genes involved in MSC survival, migration and angiogenesis.
On the technique in general: Tetrazolium assays rely on reduction of a dye to a coloured formazan, in cell work by metabolically active cells.

Test [3] concerns MSCs. Put plainly: Quantitative real time-PCR of MSCs treated with ATRA. The class given is cell-based. The settings on record: 1, 10, 100 μmol/L. As to the method: as §1
Test [4] has as its system MSCs. Briefly: PGE2 levels in MSCs pre-treated with ATRA. It is filed as cell-based. The following applies: 1, 10, 100 μmol/L, dose-dependent. As to the method: as §1
Test [5] has as its system NASH-induced liver spheroids. Briefly: Microarray gene expression profiling of NASH-induced human liver spheroids. It is filed as cell-based. The source says:
As described herein above and shown in FIGS. 15A-15F, the effect on the liver spheroids of treatment with disease-state induction agents such the FFA mixture or TGFβ1 and/or with therapeutic agents such as the exosomes can be assayed one marker (or a new markers) at a time with techniques such as immune-staining and ELISA. However, a much larger count (dozens, hundreds, thousands) of markers may be assay simultaneously using high-throughput techniques, such as microarray or next generation sequencing (NGS). FIG. 16A depicts a heatmap of changes in gene expression of liver spheroids based on microarray hybridization data. Microarray hybridization data was acquired as follows: After growth of liver spheroid samples and treatment with NASH-induction agents and/or with therapeutic agents as describe above, the liver spheroids were isolated, lysed, and mRNA was isolated, then converted to sequences of complementary DNA (cDNA). The cDNA samples were then applied to an Agilent® microarray and read with a microarray reader. The microarray analysis was performed for a predetermined transcriptome set of 22,473 genes (included in the microarray) using standard methods to obtain normalized expression values. […]
The gene expression levels of the liver spheroids in each of the different liver spheroid states were also represented and stored, respectively, as feature vectors (“spheroid state feature vectors”), with each element of a given spheroid state feature vector being a level of expression of one of the genes assayed in the microarray. The similarity (or lack of similarity) of the gene expression profile between different states was determined based on a measure of distance between pairs of feature vectors in an n-dimensional space, n being the number of genes represented in each of the feature vectors. […]

Test [6] concerns NASH-induced liver spheroids. Briefly: Treatment of NASH-induced human liver spheroids, marker staining and albumin ELISA. The class given is cell-based. The settings on record: treatment at D17-D19 after NASH induction, ELISA at 24, 48, 72 hours; HGF 40 ng/ml. As to the method:
The protocol for generating human liver spheroids and inducing a NASH phenotype in the human liver spheroids for the present study was as follows: A mix of primary hepatocytes and liver stellate cells from human donors were co-cultured at a 70:30 ratio (70 hepatocytes to 30 liver stellate cells). The cell mixture was seeded on ultra-low attachment plates and cultured to form viable liver spheroids. […] The NASH induction protocol was as follows: On day 7 post seeding, the spheroids were treated with 600 μM free fatty acid (FFA) mixture consisting of Oleic acid and Palmitic acid at a weight ratio of 2:1 for 6 days with media change every other day. After 6 days of FFA treatment (13 days post seeding), 20 ng/mL of TGF β1 was added to the FFA-containing media for a further two days of combined FFA and TGFβ1 treatment. At day 15 post seeding (after 8 days of FFA treatment and 2 days of combined FFA and TGFβ1 treatment), the media was changed to TGF β1-only treatment, with 20 ng/mL TGF β1 and without the FFA mix. […], at day 19 post seeding, the spheroids and the conditioned media were harvested for characterization. […]
Secreted albumin levels is another marker of liver health. […] The secreted albumin in the culture medium was quantified based on ELISA measurements. […]

Test [7] deals with hBM-MSCs. Briefly: Yield of exosomes from primed hBM-MSCs. It is filed as cell-based, human. The settings on record: priming of hBM-MSCs, compared to untreated (naïve) and other priming agents. As to the method: hBM-MSC was cultured in xeno-free media recommended by the manufacturer, hBM-MSC cells were grown to reach confluency of (80-90) % and treated with a Nrf2 activator (DMF-100 μM) for 24 hours before shifting and maintaining the cells in EV collect media for 24-72 hours (see example 3.3). After 72 hours, condition media was collected, and exosome isolation was performed using iodixanol density gradient protocol (as described in example 4.4).

Turning to `COc1cc(/C=C/C(=O)CC(=O)/C=C/c2ccc(O)c(OC)c2)ccc1O` [curcumin, Curcumin], the “secreted IL-6 level” value in test [1] is listed as “attenuated”.

Turning to `CC1=C(/C=C/C(C)=C/C=C/C(C)=C/C(=O)O)C(C)(C)CCC1` [ATRA, all-trans retinoic acid], in test [2], the MSC viability result was “significantly higher”. Moreover, the “mRNA levels of COX-2, HIF-1, CXCR4, CCR2, VEGF, Ang-2 and Ang-4” value in test [3] is on record as “elevated in a dose dependent manner”. In addition, the PGE2 levels entry in test [4] is reported as “significantly increased”.

As for “HGF: 40 ng/ml hepatic growth factor used as comparison treatment of NASH-induced liver spheroids”, in test [5] (FIGS. 18A-18C gene sets), the “recovery based on gene expression patterns, Jaccard Similarity Index coordinates” value was “substantially more similar to the diseased state”. Moreover, the “gene expression profile of 287 liver specific genes, cluster analysis” value in test [5] (treatment after NASH induction) was “most closely resembled the gene expression profile of the Diseased liver spheroid state”. In addition, the “gene expression profile, principal component analysis” value in test [5] (treatment at D17-D19 after NASH induction, HGF 40 ng/ml) is recorded as “substantially unchanged”. For the same compound, in test [6], the albumin secretion entry was “did not result in increased”.

As to `C=C(CC(=O)OCCCCCCCC)C(=O)O` [4-OI, 4 Octyl itaconate], the yield of exosomes entry in test [7] is listed as “higher yield”. Moreover, in test [1], the “secreted HGF level” value was “significant increase”, the “secreted IL-6 level” value is recorded as “attenuated” and the “secreted NGF level” value is reported as “enhanced”.

As for `COC(=O)/C=C/C(=O)OC` [DMF, Dimethyl fumarate], the yield of exosomes result in test [7] was “higher yield”. In test [1], the “secreted HGF level” value was “significant increase”, the “secreted IL-6 level” value is on record as “attenuated”, the “secreted NGF level” value is listed as “increase” and the “secreted SDF-1 level” value is “increase”. The “secreted sFLT1 level” value in test [1] was “increase”.
